Data reported in US4824955A, “Selenium oxy chloride-pyridine or bipyridine complexes” (Nippon Kayaku Kabushiki Kaisha, priority 1985, dated 1989).
Values joined by “and” are separate entries in the source; they are usually repeats but may differ in a detail not shown here. Identical values can stand only once. Like-named read-outs stand apart in the source and are kept apart here.

Experiments:
Enrlich carcinoma = assay: Antineoplastic activity against Enrlich carcinoma (life prolongation rate); assay type: in vivo, 5-week-old ICR mice (male); conditions: for response vs control in vivo at 16 mg/kg: Mus musculus, ip, 1440 h, read-out: Life prolongation rate (T/C %)
Protocol: Approximately 10^6 cells/0.2 ml of Enrlich carcinoma were inoculated into the abdominal cavity of each of the 5-week-old ICR mice (male) used for the test, and the test compounds were administered intraperitoneally to the mice of the treated group once a day for a period of 7 days, starting from the day after said inoculation. The mice of the control group was administered with a saline solution in the same way. Observation of the animals of both groups was continued for 60 days after the administration, and the life prolongation rate (T/C%, T/C×100) was determined from the average duration (days) of life of the mice of the treated group (T) and that of the mice of the control group (C).

[1] = intraperitoneal, once a day, 7 days, mice
[2] = test system: Salmonella typhimurium TA-98; assay: Antimutagenic activity, Ames method, against mutagenic action of benzpyrene; assay type: cell-based; conditions: with B(α)P and S-9 mix
Protocol: The antimutagenic activity was examined according to the Ames method by using Salmonella typhimurium TA-98 as test bacterium and Benzo(α)pyrene (B(α)P) as (TA-98) mutagen.
To a solution of 5 μg of B(α)P and a proper amount of a compound of this invention in 0.1 ml of DMSO were added 0.5 ml of S-9 mix and 0.1 ml of a TA-98 suspension, and the mixture was subjected to preincubation at 37° C. for 20 minutes.
This preincubated mixture was further added with 2 ml of soft agar, and after sufficient mixing, the mixture was uniformly spread on a gluclose minimum agar medium plate and incubated at 37° C. for 48 hours. Thereafter, the number of the colonies produced by reverse mutation was counted.
The number of the colonies existing in the medium containing neither B(α)P nor the compound of this invention was given as background.
The antimutagenic activity was determined as a mutation inhibition rate from the following formula: [formula]

in vivo = conditions: mouse, ip, LD50, intraperitoneal, once a day, 7 days, mice
[3] = 2.0 mg/kg/day, intraperitoneal, once a day, 7 days
[4] = 4.0 mg/kg/day, intraperitoneal, once a day, 7 days
[5] = 8.0 mg/kg/day, intraperitoneal, once a day, 7 days

Cn1cnc2ccccc21 [Compound 1-40, Selenium oxychloride-N-methylbenzimidazole (1:1) complex]
Life prolongation rate (T/C %) (Enrlich carcinoma; [3]): 214% | Life prolongation rate (T/C %) (Enrlich carcinoma; [4]): 230% | Life prolongation rate (T/C %) (Enrlich carcinoma; [5]): 243% | response vs control in vivo at 16 mg/kg (Enrlich carcinoma; intraperitoneal, (Note 2) administered for 2 days): 123% | LD50 [1]: 8-16 mg/kg/day × 7

c1ccc(-c2ccccn2)nc1 [Compound 1-41, Selenium oxychloride-2,2'-dipyridyl (1:1) complex]
Life prolongation rate (T/C %) (Enrlich carcinoma; [3]): 230% | Life prolongation rate (T/C %) (Enrlich carcinoma; [4]): 237% | Life prolongation rate (T/C %) (Enrlich carcinoma; [5]): 312% | Inhibition rate (mutation inhibition rate) ([2]; 0.5 μg/plate): 22.6 | Number of colonies ([2]; 0.5 μg/plate): 238 | Inhibition rate (mutation inhibition rate) ([2]; 1 μg/plate): 24.2 | Number of colonies ([2]; 1 μg/plate): 234 | Inhibition rate (mutation inhibition rate) ([2]; 5 μg/plate): 33.6 | Number of colonies ([2]; 5 μg/plate): 209 | Inhibition rate (mutation inhibition rate) ([2]; 10 μg/plate): 56.2 | Number of colonies ([2]; 10 μg/plate): 149 | Inhibition rate (mutation inhibition rate) ([2]; 50 μg/plate): 67.5 | Number of colonies ([2]; 50 μg/plate): 119 | Inhibition rate (mutation inhibition rate) ([2]; 100 μg/plate): 76.2 | Number of colonies ([2]; 100 μg/plate): 96 | Inhibition rate (mutation inhibition rate) ([2]; 500 μg/plate): 100 | Number of colonies ([2]; 500 μg/plate): 16 | LD50 (in vivo): 8 to 16 mg/kg

c1ccncc1 [Compound 2-1, Tetrabromoselenium-pyridine (1:2) complex]
Life prolongation rate (T/C %) (Enrlich carcinoma; mouse, in vivo): 185% and 171% and 222% and 146% | LD50 [1]: > 16 mg/kg/day × 7

c1ccc(-c2ccccn2)nc1 [Compound 2-13, Tetrachloroselenium-2,2'-dipyridinyl (1:2) complex]
Life prolongation rate (T/C %) (Enrlich carcinoma; [3]): 152% | Life prolongation rate (T/C %) (Enrlich carcinoma; [4]): 180% | Life prolongation rate (T/C %) (Enrlich carcinoma; [5]): 185% | response vs control in vivo at 16 mg/kg (Enrlich carcinoma; intraperitoneal, (Note 5) administered for 6 days): 97% | LD50 [1]: > 16 mg/kg/day × 7
